According to patent US5985885A, “Quinazoline-4-amino-2-(piperidine-1-yl-4-substituted) derivatives having antihypertensive activity, a method for their preparation and their pharmaceutical use” (priority 1996, dated 1999):
Where two headings read alike, the source gives them in different places.

Tests used:
[1] = target: T1, 5-HT2 receptors (isolated rabbit aorta) (Oryctolagus cuniculus, UniProt G1SYA7); assay: Antagonism of serotonin-induced contraction of isolated rabbit aorta
T1 construct: Four rings formed from rabbit aorta were joined together to form a chain; from tissue; host or cells: isolated rabbit aorta rings
T1 sequence (G1SYA7 1-469): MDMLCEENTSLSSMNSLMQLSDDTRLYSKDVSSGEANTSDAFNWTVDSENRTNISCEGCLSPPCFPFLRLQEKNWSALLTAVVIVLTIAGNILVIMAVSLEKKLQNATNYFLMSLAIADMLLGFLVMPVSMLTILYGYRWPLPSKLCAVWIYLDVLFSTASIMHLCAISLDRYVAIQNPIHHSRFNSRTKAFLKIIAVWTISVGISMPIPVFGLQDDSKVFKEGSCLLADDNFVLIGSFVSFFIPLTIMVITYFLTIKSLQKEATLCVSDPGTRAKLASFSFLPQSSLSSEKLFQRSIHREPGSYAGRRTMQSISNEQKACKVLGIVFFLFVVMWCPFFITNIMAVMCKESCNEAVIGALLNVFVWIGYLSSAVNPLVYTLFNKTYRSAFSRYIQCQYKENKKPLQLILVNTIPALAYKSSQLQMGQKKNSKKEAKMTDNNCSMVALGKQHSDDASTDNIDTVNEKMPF
Procedure: The antagonist activity of some of the compounds of the invention on the contractile activity of seratonin on isolated rabbit aorta, effected principally by way of the 5-HT2 receptors, is reported here by way of example. The method of Feniuk et al [Br. J. Pharmacol. (1985), 86, 697-704] was used, with slight modifications. Four rings formed from rabbit aorta were joined together to form a chain; the preparation was placed in an isolated organ bath in the presence of Krebs at 37° C. and attached to an isometric transducer, a tension of 2 g being applied and oxygenation was carried out continuously with O2 --CO2 (95-5 v/v). A seratonin concentration(0.3 μM) was used that was capable of causing sub-maximal contraction of the preparation. […] The results obtained in this way are given in Table 4 below which, for several of the compounds of the invention gives IC50 values calculated by the regression method on a set of at least 2 experiments at 5 different concentrations for each of the compounds examined, these being compared with values obtained for several reference compounds.

[2] = target: T2, alpha1B adrenergic receptor (rat liver) (Rattus norvegicus, UniProt P15823); assay: [3H]-prazosin binding in rat liver
T2 sequence (P15823 1-515): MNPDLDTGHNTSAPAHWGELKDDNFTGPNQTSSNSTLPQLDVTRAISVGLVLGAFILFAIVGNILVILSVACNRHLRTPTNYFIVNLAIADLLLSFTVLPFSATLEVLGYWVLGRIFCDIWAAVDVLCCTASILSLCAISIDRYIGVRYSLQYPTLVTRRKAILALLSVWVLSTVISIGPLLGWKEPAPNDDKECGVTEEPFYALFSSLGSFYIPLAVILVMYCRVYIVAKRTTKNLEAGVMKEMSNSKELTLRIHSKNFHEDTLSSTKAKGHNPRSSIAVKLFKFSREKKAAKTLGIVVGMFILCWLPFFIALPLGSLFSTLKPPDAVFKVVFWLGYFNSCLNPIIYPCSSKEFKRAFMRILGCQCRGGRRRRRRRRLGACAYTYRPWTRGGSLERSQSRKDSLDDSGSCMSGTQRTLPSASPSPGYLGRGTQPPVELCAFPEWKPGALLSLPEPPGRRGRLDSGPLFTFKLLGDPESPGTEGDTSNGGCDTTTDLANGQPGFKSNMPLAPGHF

[3] = tested on: anaesthetised normotensive rat; assay: Hypotensive activity in the anaesthetised normotensive rat (IV); type: in vivo; conditions: for ED30: Rattus norvegicus, read-out: Reduction in mean arterial pressure ED30
Procedure: In order to evaluate the in vivo activity, some of the compounds of the invention were administered (IV) in bolus form to the normotensive rat anaesthetised with urethane plus ketamine. The compounds were administered in at least three doses in experiments performed in duplicate so as to enable the calculation of ED30 values, that is, the dose in mg/kg that reduces the mean basal arterial pressure by 30%. The compounds of the invention, and several reference standards, were dissolved in dilute hydrochloric acid at a physiologically acceptable pH, and physiological solution was administered in a volume of 3 ml/kg. Evaluations were made at two time periods, that is, the intervals 0-30 min and 30-60 min after administration.

[4] = target: T3, alpha1A adrenergic receptor (rat GSM) (Rattus norvegicus, UniProt P43140); assay: [3H]-prazosin binding in rat submaxillary glands (GSM); conditions: alpha1A subtype, pH 7.4, 45 min, 25° C., read-out: Inhibition of the binding of [3H]-prazosin IC50
T3 sequence (P43140 1-466): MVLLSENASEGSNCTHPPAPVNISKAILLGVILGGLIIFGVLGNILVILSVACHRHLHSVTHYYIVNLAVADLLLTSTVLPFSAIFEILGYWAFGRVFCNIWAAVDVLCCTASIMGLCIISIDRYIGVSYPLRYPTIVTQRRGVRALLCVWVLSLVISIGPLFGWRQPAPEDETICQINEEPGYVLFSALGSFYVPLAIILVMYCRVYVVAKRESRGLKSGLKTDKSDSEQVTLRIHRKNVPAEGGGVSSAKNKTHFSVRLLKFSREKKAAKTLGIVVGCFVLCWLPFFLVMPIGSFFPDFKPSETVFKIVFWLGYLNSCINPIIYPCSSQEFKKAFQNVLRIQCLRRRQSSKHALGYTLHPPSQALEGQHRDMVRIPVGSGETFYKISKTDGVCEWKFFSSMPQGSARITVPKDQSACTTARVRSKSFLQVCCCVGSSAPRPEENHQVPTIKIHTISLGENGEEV

[5] = target: alpha1A + alpha1C adrenergic receptor (human prostate); assay: [3H]-prazosin binding in human prostate; conditions: alpha1A + alpha1C subtype, pH 7.5, 30 min, 25° C., read-out: Inhibition of the binding of [3H]-prazosin IC50
[6] = tested on: spontaneously hypertensive (SHR) rat; assay: Anti-hypertensive activity in the spontaneously hypertensive (SHR) rat (oral); type: in vivo; conditions: for ED20: Rattus norvegicus, 2 h, 0-120 min, NC: not calculable, read-out: Systolic pressure ED20 (0-120 min)
Description: Animals having a mean basal systolic pressure of not less than 180 mmHg were used.

[7] = isolated rabbit aorta, 37° C., compound 10 min before agonist, limits (p < 0.05)
[8] = 0.5 h, IV bolus, interval 0-30 min
[9] = 1 h, IV bolus, interval 30-60 min
[10] = read-out: Inhibitory effect (IC50) on the contraction caused by 0.3 μM serotonin, isolated rabbit aorta, 37° C., compound 10 min before agonist, limits (p < 0.05)
[11] = read-out: Inhibition of the binding of [3H]-prazosin IC50, rat liver, alpha1B subtype

Row | SMILES | IC50 [1, 7] [nM] | IC50 [2] [nM] | IC50 [4] [nM] | IC50 [5] [nM] | Cardiac frequency, max effect at 3 mg/kg ([6]; 3 mg/kg) | IC50 [1, 10] [nM] | IC50 [2, 11] [nM] | IC50 ([1]; rabbit aorta, 0.3 μM serotonin, conversion of 3.1 μg/ml, read-out: IC50, 5-HT2 antagonist activity) [nM] | times less than ketanserine (IC50) ([1]; rabbit aorta, versus ketanserine IC50 0.09 μg/ml) | 5-HT2-antagonist activity (in words) ([1]; rabbit aorta) | increase in cardiac frequency over the basal frequency ([6]; 3 mg/kg, significant) | ED30 [3, 8] [mg/kg] | ED30 [3, 9] [mg/kg] | Systolic pressure, max effect at 3 mg/kg ([6]; 3 mg/kg) [% vs basal] | ED20 [6] [mg/kg] | anti-hypertensive action (in words) [6] | hypotensive activity compared with prazosin/compounds (in words) ([3]; IV bolus) | ED30 ([3]; iv, 0.5 h) [mg/kg] | ED30 ([3]; iv, 1 h) [mg/kg] | reduction of arterial pressure ([6]; 3 mg/kg) [%]
1 | COc1cc2nc(N3CCC(c4ccco4)CC3)nc(N)c2cc1OC [Compound 4] |  |  | 3.1 | 3.8 | +0.6 % vs basal | 32700 | 1.7 |  |  |  |  | 0.08 | 0.1 | -15.5 | 13.1 |  |  |  |  | 
2 | COc1cc2nc(N3CCC(c4cccs4)CC3)nc(N)c2cc1OC [Compound 6] | 88300 | 6 | 4.1 | 4.5 | +2.7 % vs basal |  |  |  |  |  |  | 0.06 | 0.08 | -8.4 |  |  |  |  |  | 
3 | COc1cc2nc(N3CCN(C(=O)c4ccco4)CC3)nc(N)c2cc1OC [Prazosin, reference compound] | > 130000 |  |  |  | +9.7 % vs basal |  |  |  |  | inactive until higher doses (50 μg/ml) | approximately 10% | 0.02 | 0.05 | -20.0 | 2.8 |  |  |  |  | 
4 | COc1ccc(CCN(C)CCCC(C#N)(c2ccc(OC)c(OC)c2)C(C)C)cc1OC (stereo not drawn) [Verapamil, reference compound] |  |  |  |  | +2.8 % vs basal |  |  |  |  |  |  |  |  | -9.0 |  |  | less active | 0.63 | 1.06 | ≤ 9

Continued, in another order:

Row | IC50 [1, 7] [nM] | IC50 [2] [nM] | IC50 [4] [nM] | IC50 [5] [nM] | Cardiac frequency, max effect at 3 mg/kg ([6]; 3 mg/kg) | IC50 [1, 10] [nM] | IC50 [2, 11] [nM] | IC50 ([1]; rabbit aorta, 0.3 μM serotonin, conversion of 3.1 μg/ml, read-out: IC50, 5-HT2 antagonist activity) [nM] | times less than ketanserine (IC50) ([1]; rabbit aorta, versus ketanserine IC50 0.09 μg/ml) | 5-HT2-antagonist activity (in words) ([1]; rabbit aorta) | increase in cardiac frequency over the basal frequency ([6]; 3 mg/kg, significant) | SMILES | ED30 [3, 8] [mg/kg] | ED30 [3, 9] [mg/kg] | Systolic pressure, max effect at 3 mg/kg ([6]; 3 mg/kg) [% vs basal] | ED20 [6] [mg/kg] | anti-hypertensive action (in words) [6] | hypotensive activity compared with prazosin/compounds (in words) ([3]; IV bolus) | ED30 ([3]; iv, 0.5 h) [mg/kg] | ED30 ([3]; iv, 1 h) [mg/kg] | reduction of arterial pressure ([6]; 3 mg/kg) [%]
5 | 16500 | 13 | 6.1 | 2 | -0.8 % vs basal |  |  |  |  |  |  | COc1cc2nc(N3CCC(c4ccccc4)CC3)nc(N)c2cc1OC [Compound 1] | 0.19 | 0.31 | -7.5 |  |  |  |  |  | 
6 | 37300 | 7.7 | 18.8 | 7.8 | +2.1 % vs basal |  |  |  |  |  |  | COc1cc2nc(N3CCC(c4ccccc4OC)CC3)nc(N)c2cc1OC [Compound 2] | 0.5 | 0.55 | -6.4 |  |  |  |  |  | 
7 |  |  | 10.7 | 10.8 |  | 73400 | 14 |  |  |  |  | CCOc1ccccc1C1CCN(c2nc(N)c3cc(OC)c(OC)cc3n2)CC1 [Compound 3] | 0.32 | 0.35 |  |  |  |  |  |  | 
8 | 8410 | 2.1 | 3.5 | 1.7 | -0.2 % vs basal |  |  | 7600 | approximately 30 times |  |  | COc1cc2nc(N3CCC(c4ccc(C)o4)CC3)nc(N)c2cc1OC [Compound 5] | 0.03 | 0.03 | -22.1 | 2 | about as powerful as prazosin |  |  |  | 
9 | 16600 | 5.2 | 18.4 | 20 | -5.2 % vs basal |  |  |  |  |  |  | COc1cc2nc(N3CCC(c4cc5ccccc5o4)CC3)nc(N)c2cc1OC [Compound 8] | 0.07 | 0.09 | -20.2 | 2.6 | about as powerful as prazosin |  |  |  | 
